In patent publication US10894817B2, “Fatty acid modified urocortin-2 analogs for the treatment of diabetes and chronic kidney disease” (priority 2016, dated 2021):
Like-named read-outs stand apart in the source and are kept apart here. Starred links: 1 amine or outer side, 2 acyl side, 3 side chain; linkers in the order of their positions; H or OH if unused. Residues, ends and D or L forms follow the SMILES beside them. Groups on a side chain read outwards from the residue. *: point of attachment. γGlu = O=C(O)[C@H](CCC(=O)[*:2])N[*:1]; Palmitoyl = CCCCCCCCCCCCCCCC(=O)*

Biological target: T1, human CRHR2b (Homo sapiens, UniProt Q13324)
T1 construct: expressed in transfected cells; host or cells: Chinese Hamster Ovary (CHO) cells, transient transfection
T1 sequence (Q13324 1-438 isoform Q13324-2): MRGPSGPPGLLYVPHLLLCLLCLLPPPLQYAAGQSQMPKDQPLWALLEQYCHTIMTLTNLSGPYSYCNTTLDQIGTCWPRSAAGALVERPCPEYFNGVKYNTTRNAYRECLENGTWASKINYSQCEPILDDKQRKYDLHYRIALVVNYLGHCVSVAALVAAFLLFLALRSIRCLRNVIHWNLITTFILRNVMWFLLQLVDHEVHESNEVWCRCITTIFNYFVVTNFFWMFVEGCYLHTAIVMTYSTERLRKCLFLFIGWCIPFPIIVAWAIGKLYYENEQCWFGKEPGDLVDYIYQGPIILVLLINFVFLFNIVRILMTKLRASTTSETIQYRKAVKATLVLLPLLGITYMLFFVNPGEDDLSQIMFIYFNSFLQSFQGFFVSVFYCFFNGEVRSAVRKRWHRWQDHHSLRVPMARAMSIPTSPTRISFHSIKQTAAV
Assay: human CRHR2b cell-based cAMP assay
Description: CRHR agonistic activity is measured in a cell-based cAMP assay. Serial dilutions of the test peptides are made in assay buffer containing Hank's Balanced Salt Solution (HBSS, without phenol red) supplemented with 20 mM HEPES and 0.05% lactalbumin enzymatic hydrolysate (LAH) (“assay buffer”). […] A one to three dilution of the test peptides is used in both assays. Receptor over-expressing Chinese Hamster Ovary (CHO) cell line is used for the human CRHR2b assay. […] AF011406.1). Forty-eight hours after the transfection, the cells are centrifuged to remove the culture media and resuspended in fetal bovine serum containing 5% DMSO. They are cryofrozen and stored in vials in liquid nitrogen (20×10^6 cells/ml/vial). On the day of the assay, cells are thawed and resuspended in cold 30 ml culture media supplemented with 20 mM HEPES. The cells are then centrifuged to remove the media and washed once with HBSS supplemented with 20 mM HEPES. Finally, following the last centrifugation, the cells are resuspended in assay buffer. Thirty-thousand cells are used in the human CRHR2b assay for each treatment. The cells are dispensed into Costar 96-well black polystyrene half area EIA/RIA plates (Corning Incorporated, Corning, N.Y.) followed by the addition of the diluted peptides, each at a volume of 20 μL. The agonist induced cAMP levels are detected using a HTRF cAMP Dynamic 2 kit (CisBio, Bedford, Mass.). After incubation at 37° C. for 30 min, the assay is stopped by cell lysis via the addition of 20 μL of d2-labeled cAMP and followed by 20 μL of cryptate-labeled anti-cAMP antibody, as described by the manufacturer. Cellular cAMP (as a result of agonist stimulation) competes with the d2-labeled cAMP for binding to the antibody. HTRF detection is performed on an Envision plate reader (Perkin Elmer Life and Analytical Sciences, Waltham, Mass.) by measuring ratiometric emission at 620 and 665 nm after excitation at 320 nm. The data are converted to picomoles of cAMP using a standard curve obtained from the same assay performed with varying concentrations of unlabeled cAMP. […] The data are analyzed using a Curve Fitting Tool to calculate ED50. Numeric values shown below in Table 1 represent the mean of multiple runs (number of runs shown in parentheses) following the mean value±SEM.

[1] = cAMP assay, Table 26, compounds of Example 9, read-out: hCRHR2b Average EC50

Row | SMILES | EC50 [1] [nM] | EC50 [nM]
1 | CCCCCCCCCCCCCCCC(=O)N[C@@H](CCC(=O)NCCCC[C@H](NC(=O)[C@H](CCC(N)=O)NC(=O)[C@H](CC(C)C)NC(=O)[C@H](CC(C)C)NC(=O)CNC(=O)[C@@H](NC(=O)[C@@H]1CCCN1C(=O)[C@@H](NC(=O)[C@H](CC(=O)O)NC(=O)[C@H](CC(C)C)NC(=O)[C@H](CO)NC(=O)[C@H](CC(C)C)NC(=O)[C@@H](NC(=O)[C@@H](N)[C@@H](C)CC)C(C)C)C(C)C)[C@@H](C)CC)C(=O)N[C@@H](CC(C)C)C(=O)N[C@@H](CC(C)C)C(=O)N[C@@H](CCC(=O)O)C(=O)N[C@@H](CCC(N)=O)C(=O)N[C@@H](CCC(=O)O)C(=O)N[C@@H](CCCCN)C(=O)N[C@@H](CCC(N)=O)C(=O)N[C@@H](CCC(=O)O)C(=O)N[C@@H](CCCCN)C(=O)N[C@@H](CCC(=O)O)C(=O)N[C@@H](CCCCN)C(=O)N[C@@H](CCC(N)=O)C(=O)N[C@@H](CCC(N)=O)C(=O)N[C@@H](C)C(=O)N[C@H](C(=O)N[C@H](C(=O)N[C@@H](CC(N)=O)C(=O)N[C@@H](C)C(=O)N[C@@H](CCCNC(=N)N)C(=O)N[C@H](C(=O)N[C@@H](CC(C)C)C(=O)N[C@@H](C)C(=O)N[C@@H](CCCNC(=N)N)C(=O)N[C@H](C(N)=O)C(C)C)[C@@H](C)CC)[C@@H](C)O)[C@@H](C)O)C(=O)O [Compound 21] (H-IVLSLDVPIGLLQK([γGlu-Palmitoyl])LLEQEKQEKEKQQATTNARILARV-NH2) | 5.25 | –
2 | CCCCCCCCCCCCCCCC(=O)N[C@@H](CCC(=O)NCCCC[C@H](NC(=O)[C@@H](NC(=O)[C@H](CCC(N)=O)NC(=O)[C@H](CC(C)C)NC(=O)[C@H](CC(C)C)NC(=O)CNC(=O)[C@@H](NC(=O)[C@@H]1CCCN1C(=O)[C@@H](NC(=O)[C@H](CC(=O)O)NC(=O)[C@H](CC(C)C)NC(=O)[C@H](CO)NC(=O)[C@H](CC(C)C)NC(=O)[C@@H](NC(=O)[C@@H](N)[C@@H](C)CC)C(C)C)C(C)C)[C@@H](C)CC)[C@@H](C)CC)C(=O)N[C@@H](CC(C)C)C(=O)N[C@@H](CCC(=O)O)C(=O)N[C@@H](CCC(N)=O)C(=O)N[C@@H](CCC(=O)O)C(=O)N[C@@H](CCCCN)C(=O)N[C@@H](CCC(N)=O)C(=O)N[C@@H](CCC(=O)O)C(=O)N[C@@H](CCCCN)C(=O)N[C@@H](CCC(=O)O)C(=O)N[C@@H](CCCCN)C(=O)N[C@@H](CCC(N)=O)C(=O)N[C@@H](CCC(N)=O)C(=O)N[C@@H](C)C(=O)N[C@H](C(=O)N[C@H](C(=O)N[C@@H](CC(N)=O)C(=O)N[C@@H](C)C(=O)N[C@@H](CCCNC(=N)N)C(=O)N[C@H](C(=O)N[C@@H](CC(C)C)C(=O)N[C@@H](C)C(=O)N[C@@H](CCCNC(=N)N)C(=O)N[C@H](C(N)=O)C(C)C)[C@@H](C)CC)[C@@H](C)O)[C@@H](C)O)C(=O)O [Compound 22] (H-IVLSLDVPIGLLQIK([γGlu-Palmitoyl])LEQEKQEKEKQQATTNARILARV-NH2) | 1.2 | –
3 | CCCCCCCCCCCCCCCC(=O)N[C@@H](CCC(=O)NCCCC[C@H](NC(=O)[C@H](CC(C)C)NC(=O)[C@H](CC(C)C)NC(=O)[C@@H](NC(=O)[C@H](CCC(N)=O)NC(=O)[C@H](CC(C)C)NC(=O)[C@H](CC(C)C)NC(=O)CNC(=O)[C@@H](NC(=O)[C@@H]1CCCN1C(=O)[C@@H](NC(=O)[C@H](CC(=O)O)NC(=O)[C@H](CC(C)C)NC(=O)[C@H](CO)NC(=O)[C@H](CC(C)C)NC(=O)[C@@H](NC(=O)[C@@H](N)[C@@H](C)CC)C(C)C)C(C)C)[C@@H](C)CC)[C@@H](C)CC)C(=O)N[C@@H](CCC(N)=O)C(=O)N[C@@H](CCC(=O)O)C(=O)N[C@@H](CCCCN)C(=O)N[C@@H](CCC(N)=O)C(=O)N[C@@H](CCC(=O)O)C(=O)N[C@@H](CCCCN)C(=O)N[C@@H](CCC(=O)O)C(=O)N[C@@H](CCCCN)C(=O)N[C@@H](CCC(N)=O)C(=O)N[C@@H](CCC(N)=O)C(=O)N[C@@H](C)C(=O)N[C@H](C(=O)N[C@H](C(=O)N[C@@H](CC(N)=O)C(=O)N[C@@H](C)C(=O)N[C@@H](CCCNC(=N)N)C(=O)N[C@H](C(=O)N[C@@H](CC(C)C)C(=O)N[C@@H](C)C(=O)N[C@@H](CCCNC(=N)N)C(=O)N[C@H](C(N)=O)C(C)C)[C@@H](C)CC)[C@@H](C)O)[C@@H](C)O)C(=O)O [Compound 23] (H-IVLSLDVPIGLLQILLK([γGlu-Palmitoyl])QEKQEKEKQQATTNARILARV-NH2) | – | 17.9
4 | CCCCCCCCCCCCCCCC(=O)N[C@@H](CCC(=O)NCCCC[C@H](NC(=O)[C@H](CCC(N)=O)NC(=O)[C@H](CCC(=O)O)NC(=O)[C@H](CC(C)C)NC(=O)[C@H](CC(C)C)NC(=O)[C@@H](NC(=O)[C@H](CCC(N)=O)NC(=O)[C@H](CC(C)C)NC(=O)[C@H](CC(C)C)NC(=O)CNC(=O)[C@@H](NC(=O)[C@@H]1CCCN1C(=O)[C@@H](NC(=O)[C@H](CC(=O)O)NC(=O)[C@H](CC(C)C)NC(=O)[C@H](CO)NC(=O)[C@H](CC(C)C)NC(=O)[C@@H](NC(=O)[C@@H](N)[C@@H](C)CC)C(C)C)C(C)C)[C@@H](C)CC)[C@@H](C)CC)C(=O)N[C@@H](CCCCN)C(=O)N[C@@H](CCC(N)=O)C(=O)N[C@@H](CCC(=O)O)C(=O)N[C@@H](CCCCN)C(=O)N[C@@H](CCC(=O)O)C(=O)N[C@@H](CCCCN)C(=O)N[C@@H](CCC(N)=O)C(=O)N[C@@H](CCC(N)=O)C(=O)N[C@@H](C)C(=O)N[C@H](C(=O)N[C@H](C(=O)N[C@@H](CC(N)=O)C(=O)N[C@@H](C)C(=O)N[C@@H](CCCNC(=N)N)C(=O)N[C@H](C(=O)N[C@@H](CC(C)C)C(=O)N[C@@H](C)C(=O)N[C@@H](CCCNC(=N)N)C(=O)N[C@H](C(N)=O)C(C)C)[C@@H](C)CC)[C@@H](C)O)[C@@H](C)O)C(=O)O [Compound 24, IVLSLDVPIGLLQILLEQK*KQEKEKQQATTNARILARV-NH2] (H-IVLSLDVPIGLLQILLEQK([γGlu-Palmitoyl])KQEKEKQQATTNARILARV-NH2) | 25.3 | –
5 | CCCCCCCCCCCCCCCC(=O)N[C@@H](CCC(=O)NCCCC[C@H](NC(=O)[C@H](CCC(=O)O)NC(=O)[C@H](CCC(N)=O)NC(=O)[C@H](CCC(=O)O)NC(=O)[C@H](CC(C)C)NC(=O)[C@H](CC(C)C)NC(=O)[C@@H](NC(=O)[C@H](CCC(N)=O)NC(=O)[C@H](CC(C)C)NC(=O)[C@H](CC(C)C)NC(=O)CNC(=O)[C@@H](NC(=O)[C@@H]1CCCN1C(=O)[C@@H](NC(=O)[C@H](CC(=O)O)NC(=O)[C@H](CC(C)C)NC(=O)[C@H](CO)NC(=O)[C@H](CC(C)C)NC(=O)[C@@H](NC(=O)[C@@H](N)[C@@H](C)CC)C(C)C)C(C)C)[C@@H](C)CC)[C@@H](C)CC)C(=O)N[C@@H](CCC(N)=O)C(=O)N[C@@H](CCC(=O)O)C(=O)N[C@@H](CCCCN)C(=O)N[C@@H](CCC(=O)O)C(=O)N[C@@H](CCCCN)C(=O)N[C@@H](CCC(N)=O)C(=O)N[C@@H](CCC(N)=O)C(=O)N[C@@H](C)C(=O)N[C@H](C(=O)N[C@H](C(=O)N[C@@H](CC(N)=O)C(=O)N[C@@H](C)C(=O)N[C@@H](CCCNC(=N)N)C(=O)N[C@H](C(=O)N[C@@H](CC(C)C)C(=O)N[C@@H](C)C(=O)N[C@@H](CCCNC(=N)N)C(=O)N[C@H](C(N)=O)C(C)C)[C@@H](C)CC)[C@@H](C)O)[C@@H](C)O)C(=O)O [Compound 25] (H-IVLSLDVPIGLLQILLEQEK([γGlu-Palmitoyl])QEKEKQQATTNARILARV-NH2) | 63.5 | –
